The values below come from patent publication EP0231444A2, “Optically active isomers and racemate of 1-(benztriazol-4-yloxy)-3-[2-(2-methoxyphenoxy)-ethylamino]-2-propanol, process for their preparation as well as their use as medicaments” (BOEHRINGER MANNHEIM GMBH, priority 1985, dated 1987).

Counter-ions that a name gives are not always drawn.

In experiment [1] the target is β₂-Rezeptoren (Rezeptoren der glatten Muskulatur) (Homo sapiens, UniProt P07550). The experiment is described as follows: beta-2 adrenergic receptor blockade (no method described). The settings on record: qualitative statement.
β₂-Rezeptoren (Rezeptoren der glatten Muskulatur), sequence (P07550 whole entry): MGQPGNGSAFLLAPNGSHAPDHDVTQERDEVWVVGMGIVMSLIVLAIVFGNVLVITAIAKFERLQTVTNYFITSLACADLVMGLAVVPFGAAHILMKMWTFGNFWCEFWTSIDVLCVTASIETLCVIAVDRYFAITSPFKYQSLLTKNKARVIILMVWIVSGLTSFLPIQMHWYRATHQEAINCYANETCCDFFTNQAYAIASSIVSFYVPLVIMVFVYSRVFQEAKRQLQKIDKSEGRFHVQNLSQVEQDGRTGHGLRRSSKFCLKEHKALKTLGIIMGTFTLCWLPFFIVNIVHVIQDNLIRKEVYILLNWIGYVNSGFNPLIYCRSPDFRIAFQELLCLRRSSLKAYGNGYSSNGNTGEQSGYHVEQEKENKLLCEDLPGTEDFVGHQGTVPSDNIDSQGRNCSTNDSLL
In experiment [2] the test system is Blutgefäße. Particulars: as described in EP-B 14 951; cited from earlier work.
Experiment [3] deals with β₁-Rezeptoren (Rezeptoren des Herzmuskels) (Homo sapiens, UniProt P08588). The experiment is described as follows: beta-1 adrenergic receptor blockade (no method described). The settings on record: qualitative statement.
β₁-Rezeptoren (Rezeptoren des Herzmuskels), sequence (P08588 whole entry): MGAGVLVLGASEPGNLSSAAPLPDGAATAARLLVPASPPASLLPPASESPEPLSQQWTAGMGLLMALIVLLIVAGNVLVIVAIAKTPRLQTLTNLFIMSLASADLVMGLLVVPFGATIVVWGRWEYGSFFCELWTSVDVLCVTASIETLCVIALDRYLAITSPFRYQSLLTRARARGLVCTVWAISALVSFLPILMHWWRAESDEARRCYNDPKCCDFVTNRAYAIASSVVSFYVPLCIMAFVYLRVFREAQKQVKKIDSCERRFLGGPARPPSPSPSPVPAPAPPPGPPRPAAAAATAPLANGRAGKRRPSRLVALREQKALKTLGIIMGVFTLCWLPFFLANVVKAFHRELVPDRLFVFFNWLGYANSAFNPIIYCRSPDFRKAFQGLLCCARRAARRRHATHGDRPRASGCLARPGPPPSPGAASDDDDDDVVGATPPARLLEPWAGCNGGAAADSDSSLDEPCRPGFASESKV
Experiment [4] relates to Augeninnendruck. As to the kind of experiment: lowering of intraocular pressure on local application (no method described). It is filed as in vivo. The settings on record: lokale Applikation, qualitative statement.
Experiment [5] relates to Blutgefäße. As to the kind of experiment: vasodilating effect (no method described). The settings on record: qualitative statement, enantiomers.
The mark [6] stands for this setting: listed as erfindungsgemäße Substanz.

Consider `COc1ccccc1OCCNCC(O)COc1cccc2[nH]nnc12` (racemic) [racemische Substanz, 1-(Benztriazol-4-yloxy)-3-(2-(2-methoxyphenoxy)-ethylamino)-2-propanol], for which the results for the “β₂-blockierende Wirkung” value in experiment [1] (listed as Beispiel 8 b) and in experiment [1] (setting [6]) were “nicht oder nur wenig beeinflußt” and “nur sehr geringe β₂-blockierende Wirkung”, respectively. Also, in experiment [2], the “vasodilatierende Eigenschaften” value is “vasodilatierende Eigenschaften”. Also, in experiment [3] (β₁ versus β₂), the “Selektivität β₁ gegenüber β₂ (cardioselektiv)” value is “cardioselektiv”. Moreover, the “β₁-blockierende Wirkung” value in experiment [3] (listed as Beispiel 8 b) is recorded as “vorwiegend eine β₁-blockierende Wirkung”; in experiment [3] (setting [6]), “β₁-blockierende Wirkung besitzt”. Besides, the “augeninnendrucksenkende Wirkung” value in experiment [4] is given as “in extrem geringer Konzentration”; in experiment [4] (setting [6]), “im gleichen Maße vorhanden ist wie bei üblichen bekannten β-blockierenden Verbindungen”.

`COc1ccccc1OCCNC[C@@H](O)COc1cccc2[nH]nnc12` (single isomer, unassigned) [R-Enantiomere]: the “β₂-blockierende Wirkung” value in experiment [1] was “keine β₂-blockierende”. The “β₁-blockierende Wirkung” value in experiment [3] is “keine β₁-blockierende”. For the same compound, the “augeninnendrucksenkende Wirkung” value in experiment [4] is “augendrucksenkenden Wirkung”.

For `COc1ccccc1OCCNC[C@H](O)COc1cccc2[nH]nnc12` (single isomer, unassigned) [S-Enantiomere, S-(-)-1-(Benztriazol-4-yloxy)-3-(2-(2-methoxyphenoxy)-ethyl-amino)-2-propanol-hydrochlorid], the “vasodilatierende / blutgefäßerweiternde Wirkung” value in experiment [5] is given as “blutgefäßerweiternde”. Moreover, the “β₁-blockierende Wirkung” value in experiment [3] is recorded as “praktisch die gesamte”.
